Data on eleven molecules can be found in US11884671B2, “Purinone compounds and their use in treating cancer” (ASTRAZENECA AB, priority 2018, dated 2024).

For one test, the target named is DNAPK (Homo sapiens (Human), UniProt P78527). Briefly: DNAPK cellular potency assay (DNA-PK cell), pS2056-DNAPK ELISA in irradiated A549 cells. To be noted: 8 Gy radiation, arithmetic mean of two or more experiments, read-out: DNA-PK cell pIC50 (converted). The test is classed as cell-based. As for the experimental part:
The DNAPK cell ELISA assay was performed in the A549 cell line. A549 cells were cultured in cell media composed of MEM-F12 (Minimum Essential Medium F12 Sigma #D6421), 10% (v/v) Foetal Calf Serum and 1% (v/v) 200 mM L-Glutamine. […] The following day the Greiner ELISA plates were washed 3× with PBS-T and blocked with 3% BSA/PBS for 2 h, before a further 3× wash with PBS-T.
The cell plates were then incubated for 1 h at 37° C. before receiving a radiation dose of 8 Gy (XRAD 320, table height 65). The cells were incubated for a further 1 h before removal of cell media. […] Cell lysates ([…]) were transferred to the DNAPK antibody-coated ELISA plates using a CyBio Felix liquid handling platform, and ELISA plates were incubated at 4° C. overnight.
The following day, ELISA plates were washed 3× with PBS-T and dispensed with in-house pS2056-DNAPK antibody (0.5 μg/mL in 3% BSA/PBS) at 20 ul/well.
The fluorescence intensity of individual wells was determined using a PerkinElmer EnVision plate reader.
(§1) Data was analysed and IC50 values were calculated using Genedata Screener® software (Genedata, Inc., Basel, Switzerland).
A general note: An ELISA detects its analyte on a solid surface through an enzyme-linked reagent.

The next test has as its target JAK1 (Homo sapiens (Human), UniProt P23458). Briefly: JAK1 enzyme assay (Z'-LYTE). The test is classed as biochemical. To be noted: 75 μM ATP, arithmetic mean of two or more experiments; for IC50: read-out: JAK1 enz pIC50 (converted). As for the experimental part: (§2) The inhibitory activity of compounds against AURKA, AURKB, JAK1, JAK2 and JAK3 was determined in Z′-LYTE® assays run by ThermoFisher Scientific as part of their SelectScreen® Biochemical Kinase Profiling Service. The Z′-LYTE® biochemical assay format employs a fluorescence-based, coupled-enzyme format and is based on the differential sensitivity of phosphorylated and non-phosphorylated peptides to proteolytic cleavage. The peptide substrate is labeled with two fluorophores—one at each end—that make up a FRET pair. In the primary reaction, the kinase transfers the gamma-phosphate of ATP to a single tyrosine, serine or threonine residue in a synthetic FRET-peptide. In the secondary reaction, a site-specific protease recognises and cleaves non-phosphorylated FRET-peptides. Phosphorylation of FRET-peptides suppresses cleavage by the Development Reagent. Cleavage disrupts FRET between the donor (i.e., coumarin) and acceptor (i.e., fluorescein) fluorophores on the FRET-peptide, whereas uncleaved, phosphorylated FRET-peptides maintain FRET. A ratiometric method, which calculates the ratio (the Emission Ratio) of donor emission to acceptor emission after excitation of the donor fluorophore at 400 nm, is used to quantitate reaction progress. Both cleaved and uncleaved FRET-peptides contribute to the fluorescence signals and therefore to the Emission Ratio. The extent of phosphorylation of the FRET-peptide can be calculated from the Emission Ratio.
(§3) 10 point three-fold dilution compound concentration-response curves, with a top concentration of 10 μM were generated from 10 mM stocks of compound solubilised in DMSO. All assays were performed in black, non-binding, low volume Corning 384-well plates (cat. #4514, Corning), in a total reaction volume of 10 μL and 1% (v/v) final DMSO concentration. […] The kinase reaction was then quenched by the addition of 5 μL of Development Reagent (ThermoFisher Scientific proprietary). […] IC50 values were calculated using XLfit software (IDBS Ltd, Surrey, UK), with the curve fit to model number 205 (sigmoidal dose-response model).
JAK1: The 2×JAK/Tyr 06 (ThermoFisher Scientific proprietary) mixture was prepared in 50 mM HEPES pH 6.5, 0.01% BRIJ-35, 10 mM MgCl2, 1 mM EGTA, 0.02% NaN3. […] After the 1 hour Kinase Reaction incubation, 5 μL of a 1:128 dilution of Development Reagent was added.

Test [1] addresses Full length human DNAPK protein (Homo sapiens (Human), UniProt P78527). Briefly: DNAPK enzyme potency assay (DNA-PK enz), TR-FRET. Type of test: biochemical. As to conditions: arithmetic mean of two or more experiments, 18 μM ATP; for IC50: read-out: DNA-PK enz pIC50 (converted).
Text: The following assays were used to measure the effects of the compounds described herein: a) DNAPK enzyme potency assay; b) DNAPK cellular potency assay. During the description of the assays, generally: • i. The following abbreviations have been used; DMSO=Dimethyl Sulphoxide; DTT=Dithiothreitol; EDTA=Ethylenediaminetetraacetic Acid, TR-FRET=Time Resolved Fluorescence Resonance Energy Transfer, ATP=Adenosine triphosphate, DTT=Dithiothreitol, DNA=Deoxyribonucleic acid, HEPES=(2-hydroxyethyl)-1-piperazineethanesulfonic acid • ii. […] Assay a): DNAPK Enzyme Potency Assay (DNA-PK Enz)
The inhibitory activity of compounds against DNAPK was determined by TR-FRET measuring a fluorescent labelled peptide substrate converting to a phosphorylated product. Fluorescently tagged peptide substrate were purchased from Thermo Fisher Scientific. 12 point half-log compound concentration-response curves, with a top concentration of 100 μM were generated from 10 mM stocks of compound solubilised in DMSO using an Echo 555 (Labcyte Inc., Sunnyvale, CA). All assays were preformed in white Greiner 1536 well low volume plates (Greiner Bio-One, UK), in a total reaction volume of 3 μL and 1% (v/v) final DMSO concentration. Enzymes and substrates were added separately to the compound plates and incubated at room temperature. The kinase reaction was then quenched by the addition of 3 μL of stop buffer. Stopped assay plates were read using a BMG Pherastar. IC50 values were calculated using a Genedata Screener® software (Genedata, Inc., Basel, Switzerland).
Full length human DNAPK protein was purified from HeLa cell extract by ion exchange. Initially DNAPK protein was incubated with compound for 30 minutes at room temperature in reaction buffer (50 mM Hepes pH 7.5, 0.01% Brij-35, 10 mM MgCl2, 1 mM EGTA, 1 mM DTT, […] Calf Thymus DNA). The reaction was then initiated by the addition of ATP and fluorescently tagged peptide substrate (Fluorescein-[…], Thermo Fisher Scientific). […] The reaction was incubated for a further hour and the plates were read on a BMG Pherastar.
as §1
(TR-FRET usually uses a lanthanide donor and a delayed reading to cut background.)

In another test the target is JAK2 (Homo sapiens (Human), UniProt O60674). Briefly: JAK2 enzyme assay (Z'-LYTE). The test is classed as biochemical. To be noted: 25 μM ATP, arithmetic mean of two or more experiments; for IC50: read-out: JAK2 enz pIC50 (converted). As for the experimental part: as §2, §3
Chain of JAK2 (O60674 whole entry): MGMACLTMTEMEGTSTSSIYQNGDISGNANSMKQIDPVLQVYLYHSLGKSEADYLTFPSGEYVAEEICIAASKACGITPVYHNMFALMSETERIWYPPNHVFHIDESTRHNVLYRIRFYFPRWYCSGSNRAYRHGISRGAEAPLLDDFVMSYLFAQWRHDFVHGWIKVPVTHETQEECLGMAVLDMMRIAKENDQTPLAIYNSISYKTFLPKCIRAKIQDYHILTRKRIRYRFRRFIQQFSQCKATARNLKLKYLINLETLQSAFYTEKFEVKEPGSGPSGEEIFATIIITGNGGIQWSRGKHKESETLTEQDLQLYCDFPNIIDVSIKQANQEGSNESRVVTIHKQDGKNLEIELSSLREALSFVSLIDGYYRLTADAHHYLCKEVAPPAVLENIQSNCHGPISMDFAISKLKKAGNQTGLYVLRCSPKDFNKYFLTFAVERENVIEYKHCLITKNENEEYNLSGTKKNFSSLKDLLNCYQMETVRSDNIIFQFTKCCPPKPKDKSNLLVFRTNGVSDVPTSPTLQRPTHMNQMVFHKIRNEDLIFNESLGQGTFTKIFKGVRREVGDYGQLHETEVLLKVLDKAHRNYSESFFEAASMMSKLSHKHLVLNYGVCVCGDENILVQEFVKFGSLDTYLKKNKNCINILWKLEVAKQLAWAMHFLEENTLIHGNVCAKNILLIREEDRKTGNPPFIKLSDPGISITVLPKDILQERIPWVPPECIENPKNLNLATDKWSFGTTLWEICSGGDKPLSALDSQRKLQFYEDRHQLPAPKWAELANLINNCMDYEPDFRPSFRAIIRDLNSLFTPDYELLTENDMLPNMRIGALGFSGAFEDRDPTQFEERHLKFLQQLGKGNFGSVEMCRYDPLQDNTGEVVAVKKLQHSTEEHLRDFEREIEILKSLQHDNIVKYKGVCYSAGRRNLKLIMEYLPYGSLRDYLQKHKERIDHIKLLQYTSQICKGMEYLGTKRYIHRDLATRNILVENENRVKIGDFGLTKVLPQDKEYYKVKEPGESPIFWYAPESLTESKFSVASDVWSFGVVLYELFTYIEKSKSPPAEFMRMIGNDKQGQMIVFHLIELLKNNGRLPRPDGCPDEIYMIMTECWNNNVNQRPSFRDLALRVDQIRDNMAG
JAK2: The 2×JAK2/Tyr 06 (ThermoFisher Scientific proprietary) mixture was prepared in 50 mM HEPES pH 7.5, 0.01% BRIJ-35, 10 mM MgCl2, 1 mM EGTA. […] After the 1 hour Kinase Reaction incubation, 5 μL of a 1:128 dilution of Development Reagent was added.

The next test has as its target JAK3 (Homo sapiens (Human), UniProt P52333). Briefly: JAK3 enzyme assay (Z'-LYTE). The test is classed as biochemical. As to conditions: 10 μM ATP, arithmetic mean of two or more experiments; for IC50: read-out: JAK3 enz pIC50 (converted). How it is done:
as §2, §3
JAK3: The 2×JAK3/Tyr 06 (ThermoFisher Scientific proprietary) mixture was prepared in 50 mM HEPES pH 7.5. 0.01% BRIJ-35, 10 mM MgCl2, 1 mM EGTA. […] After the 1 hour Kinase Reaction incubation, 5 μL of a 1:128 dilution of Development Reagent was added.

Chain of JAK1 (P23458 whole entry): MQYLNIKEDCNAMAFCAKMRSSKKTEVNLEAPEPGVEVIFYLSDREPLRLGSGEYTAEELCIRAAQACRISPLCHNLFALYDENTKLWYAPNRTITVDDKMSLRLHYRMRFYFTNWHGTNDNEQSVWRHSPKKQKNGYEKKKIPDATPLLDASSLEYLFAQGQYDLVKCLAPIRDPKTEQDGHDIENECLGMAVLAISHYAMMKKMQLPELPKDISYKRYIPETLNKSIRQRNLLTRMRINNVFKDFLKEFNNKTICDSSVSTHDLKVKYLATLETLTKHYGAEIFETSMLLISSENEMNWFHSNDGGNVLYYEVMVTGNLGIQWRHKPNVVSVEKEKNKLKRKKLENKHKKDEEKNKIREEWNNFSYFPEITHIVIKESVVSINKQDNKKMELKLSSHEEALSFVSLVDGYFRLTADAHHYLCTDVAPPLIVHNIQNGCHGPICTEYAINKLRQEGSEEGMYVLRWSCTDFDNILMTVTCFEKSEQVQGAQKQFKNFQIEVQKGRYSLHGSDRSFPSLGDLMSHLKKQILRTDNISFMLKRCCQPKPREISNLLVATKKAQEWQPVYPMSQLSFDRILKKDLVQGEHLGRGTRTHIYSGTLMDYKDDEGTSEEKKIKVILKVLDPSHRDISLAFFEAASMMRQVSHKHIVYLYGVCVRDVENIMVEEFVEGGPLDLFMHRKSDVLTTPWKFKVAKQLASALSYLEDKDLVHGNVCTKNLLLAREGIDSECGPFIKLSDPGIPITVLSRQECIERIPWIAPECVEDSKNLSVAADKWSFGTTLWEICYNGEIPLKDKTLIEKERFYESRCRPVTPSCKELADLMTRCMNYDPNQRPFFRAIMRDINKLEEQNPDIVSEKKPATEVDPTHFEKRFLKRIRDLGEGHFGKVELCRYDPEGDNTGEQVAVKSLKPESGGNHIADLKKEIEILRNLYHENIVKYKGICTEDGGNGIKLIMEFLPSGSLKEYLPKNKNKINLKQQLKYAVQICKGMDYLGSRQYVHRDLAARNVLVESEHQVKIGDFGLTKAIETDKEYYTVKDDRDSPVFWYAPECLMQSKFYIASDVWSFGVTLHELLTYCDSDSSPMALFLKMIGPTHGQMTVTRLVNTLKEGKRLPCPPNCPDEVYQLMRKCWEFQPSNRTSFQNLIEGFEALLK
Chain of JAK3 (P52333 whole entry): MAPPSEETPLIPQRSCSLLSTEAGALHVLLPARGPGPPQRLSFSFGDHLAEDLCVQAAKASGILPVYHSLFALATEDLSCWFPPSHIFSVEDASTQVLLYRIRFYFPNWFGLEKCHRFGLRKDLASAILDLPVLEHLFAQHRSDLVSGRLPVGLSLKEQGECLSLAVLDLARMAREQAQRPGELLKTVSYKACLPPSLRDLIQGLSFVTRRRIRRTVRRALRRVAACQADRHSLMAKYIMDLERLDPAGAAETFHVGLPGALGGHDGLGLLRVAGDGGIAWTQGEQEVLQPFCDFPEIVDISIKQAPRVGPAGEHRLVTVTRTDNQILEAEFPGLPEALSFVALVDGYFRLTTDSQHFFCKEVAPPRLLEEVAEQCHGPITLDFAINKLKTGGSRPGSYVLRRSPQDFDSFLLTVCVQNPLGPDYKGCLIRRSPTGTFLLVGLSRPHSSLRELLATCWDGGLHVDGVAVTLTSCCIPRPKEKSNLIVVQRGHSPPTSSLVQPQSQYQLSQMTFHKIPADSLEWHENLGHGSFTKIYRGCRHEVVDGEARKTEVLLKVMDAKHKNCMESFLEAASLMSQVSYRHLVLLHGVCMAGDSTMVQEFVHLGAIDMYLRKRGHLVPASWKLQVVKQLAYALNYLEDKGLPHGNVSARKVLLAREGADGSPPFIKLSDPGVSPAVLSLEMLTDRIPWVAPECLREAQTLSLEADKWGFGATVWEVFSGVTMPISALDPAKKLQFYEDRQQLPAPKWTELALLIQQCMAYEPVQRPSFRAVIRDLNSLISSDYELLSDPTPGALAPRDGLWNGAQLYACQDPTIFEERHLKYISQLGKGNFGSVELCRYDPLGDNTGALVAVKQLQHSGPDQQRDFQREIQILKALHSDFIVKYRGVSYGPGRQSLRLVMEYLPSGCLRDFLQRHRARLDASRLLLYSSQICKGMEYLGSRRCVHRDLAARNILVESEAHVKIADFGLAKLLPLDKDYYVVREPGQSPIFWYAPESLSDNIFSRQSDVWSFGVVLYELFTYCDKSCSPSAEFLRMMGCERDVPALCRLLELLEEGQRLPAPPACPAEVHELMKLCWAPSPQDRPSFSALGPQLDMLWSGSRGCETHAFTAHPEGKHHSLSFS

On to `CC(=O)N1CCC(n2c(=O)n(C)c3cnc(Nc4cc5ccnnc5cc4C)nc32)CC1` [Example 1, 9-(1-acetylpiperidin-4-yl)-7-methyl-2-((7-methylcinnolin-6-yl)amino)-7,9-dihydro-8H-purin-8-one], for which the IC50 on DNAPK is 200 nM. Besides, at JAK1, the “JAK1 enz pIC50” value is below 5. For the same molecule, in test [1], the “DNA-PK enz pIC50” value is 10.0. Further, the “JAK2 enz pIC50” value at JAK2 is listed as below 5.2. Besides, the “JAK3 enz pIC50” value on JAK3 was below 5.

`CC(=O)N1CCC(n2c(=O)n(C)c3cnc(Nc4cc5nccnc5cc4C)nc32)CC1` [Example 2, 9-(1-acetylpiperidin-4-yl)-7-methyl-2-((7-methylquinoxalin-6-yl)amino)-7,9-dihydro-8H-purin-8-one]: the IC50 at DNAPK was 50.1 nM. Moreover, the “JAK1 enz pIC50” value at JAK1 was below 5. The “DNA-PK enz pIC50” value in test [1] was found to be 9.8. Further, at JAK2, the “JAK2 enz pIC50” value was below 5. Further, the “JAK3 enz pIC50” value at JAK3 is below 5.

In the case of `CC(=O)N1CCC(n2c(=O)n(C)c3cnc(Nc4cc5cncnc5cc4C)nc32)CC1` [Example 3, 9-(1-acetylpiperidin-4-yl)-7-methyl-2-((7-methylquinazolin-6-yl)amino)-7,9-dihydro-8H-purin-8-one], the IC50 on DNAPK was 63.1 nM. For the same molecule, the “JAK1 enz pIC50” value at JAK1 is reported as below 5. The “DNA-PK enz pIC50” value in test [1] is listed as above 10. Also, the “JAK2 enz pIC50” value at JAK2 is below 5. Besides, on JAK3, the “JAK3 enz pIC50” value is recorded as below 5.

Turning to `CC(=O)N1CCC(n2c(=O)n(C)c3cnc(Nc4cc5ncc(C)nc5cc4C)nc32)CC1` [Example 4, 9-(1-acetylpiperidin-4-yl)-2-((2,7-dimethylquinoxalin-6-yl)amino)-7-methyl-7,9-dihydro-8H-purin-8-one], at DNAPK, the IC50 was 251 nM. In addition, on JAK1, the “JAK1 enz pIC50” value is below 5. Moreover, the “DNA-PK enz pIC50” value in test [1] came out at 9.0. At JAK2, the “JAK2 enz pIC50” value was below 5. Further, at JAK3, the “JAK3 enz pIC50” value was below 5.

`CC(=O)N1CCC(n2c(=O)n(C)c3cnc(Nc4cc5nc(C)cnc5cc4C)nc32)CC1` [Example 5, 9-(1-acetylpiperidin-4-yl)-2-((3,7-dimethylquinoxalin-6-yl)amino)-7-methyl-7,9-dihydro-8H-purin-8-one]: at DNAPK, the IC50 is 100 nM. Also, at JAK1, the “JAK1 enz pIC50” value is given as below 5. Moreover, in test [1], the “DNA-PK enz pIC50” value was 9.1. On JAK2, the “JAK2 enz pIC50” value was below 5. For the same molecule, at JAK3, the “JAK3 enz pIC50” value was below 5.

Consider `Cc1cc2ncccc2cc1Nc1ncc2c(n1)n([C@H]1CC[C@H](O)CC1)c(=O)n2C` [Example 6, 9-((1r,4r)-4-hydroxycyclohexyl)-7-methyl-2-((7-methylquinolin-6-yl)amino)-7,9-dihydro-8H-purin-8-one], for which the IC50 at DNAPK was 5.01 nM. The “JAK1 enz pIC50” value on JAK1 is reported as below 5. Also, the “DNA-PK enz pIC50” value in test [1] is above 10. The “JAK2 enz pIC50” value at JAK2 is below 5. For the same molecule, the “JAK3 enz pIC50” value on JAK3 was below 5.

In the case of `Cc1cc2nnccc2cc1Nc1ncc2c(n1)n([C@H]1CC[C@H](O)CC1)c(=O)n2C` [Example 7, 9-((1r,4r)-4-hydroxycyclohexyl)-7-methyl-2-((7-methylcinnolin-6-yl)amino)-7,9-dihydro-8H-purin-8-one], the IC50 on DNAPK is 50.1 nM. Moreover, the “JAK1 enz pIC50” value on JAK1 was below 5. Moreover, the “DNA-PK enz pIC50” value in test [1] is on record as above 10. For the same molecule, at JAK2, the “JAK2 enz pIC50” value is below 5. Moreover, at JAK3, the “JAK3 enz pIC50” value is recorded as below 5.

With `Cc1cc2nccc(C)c2cc1Nc1ncc2c(n1)n([C@H]1CC[C@H](O)CC1)c(=O)n2C` [Example 8, 2-((4,7-dimethylquinolin-6-yl)amino)-9-((1r,4r)-4-hydroxycyclohexyl)-7-methyl-7,9-dihydro-8H-purin-8-one], the IC50 at DNAPK was 10 nM; at JAK1, above 10000 nM; in test [1] it was below 0.1 nM; at JAK2, above 10000 nM; on JAK3 it was above 10000 nM.

With `COc1ccnc2cc(C)c(Nc3ncc4c(n3)n([C@H]3CC[C@H](O)CC3)c(=O)n4C)cc12` [Example 9, 9-((1r,4r)-4-hydroxycyclohexyl)-2-((4-methoxy-7-methylquinolin-6-yl)amino)-7-methyl-7,9-dihydro-8H-purin-8-one], the IC50 on DNAPK was 7.94 nM. In addition, the “JAK1 enz pIC50” value on JAK1 is reported as below 5. Also, the “DNA-PK enz pIC50” value in test [1] is above 10. For the same molecule, the “JAK2 enz pIC50” value at JAK2 is on record as below 5. The “JAK3 enz pIC50” value on JAK3 was below 5.

With `Cc1cc2nccnc2cc1Nc1ncc2c(n1)n([C@H]1CC[C@H](O)CC1)c(=O)n2C` [Example 10, 9-((1r,4r)-4-hydroxycyclohexyl)-7-methyl-2-((7-methylquinoxalin-6-yl)amino)-7,9-dihydro-8H-purin-8-one], the IC50 was 10 nM on DNAPK; above 10000 nM on JAK1; below 0.1 nM in test [1]; above 10000 nM at JAK2; above 10000 nM at JAK3.

`Cc1cc2ncccc2cc1Nc1ncc2c(n1)n([C@H]1CC[C@@H](O)CC1)c(=O)n2C` [Example 11, 9-((1s,4s)-4-hydroxycyclohexyl)-7-methyl-2-((7-methylquinolin-6-yl)amino)-7,9-dihydro-8H-purin-8-one]: the IC50 on DNAPK is 20 nM; on JAK1, above 10000 nM; in test [1], 0.158 nM; at JAK2 it was above 10000 nM; on JAK3 it was above 10000 nM.
